From ChEMBL document CHEMBL1240393, “Full Resistance and decreased susceptibility to carbapenems in IMP-13-producing Pseudomonas aeruginosa isolates from an outbreak” (2010)
Values after ≈ are worked out from the molar mass of the structure shown.

Key:
[1] = system: Pseudomonas aeruginosa; assay: Antibacterial activity against beta-lactamase IMP-13 producing Pseudomonas aeruginosa isolate 9
[2] = system: Pseudomonas aeruginosa; assay: Antibacterial activity against beta-lactamase IMP-13 producing Pseudomonas aeruginosa isolate 18
[3] = system: Pseudomonas aeruginosa; assay: Antibacterial activity against beta-lactamase IMP-13 producing Pseudomonas aeruginosa isolate 5 assessed as zone of inhibition by disk diffusion assay; format: functional
[4] = system: Pseudomonas aeruginosa; assay: Antibacterial activity against beta-lactamase IMP-13 producing Pseudomonas aeruginosa isolate 13 assessed as zone of inhibition by disk diffusion assay; format: functional
[5] = system: Pseudomonas aeruginosa; assay: Antibacterial activity against beta-lactamase IMP-13 producing Pseudomonas aeruginosa isolate 15 assessed as zone of inhibition by disk diffusion assay; format: functional
[6] = system: Pseudomonas aeruginosa; assay: Antibacterial activity against beta-lactamase IMP-13 producing Pseudomonas aeruginosa isolate 1; format: functional
[7] = system: Pseudomonas aeruginosa; assay: Antibacterial activity against beta-lactamase IMP-13 producing Pseudomonas aeruginosa isolate 14 assessed as zone of inhibition by disk diffusion assay; format: functional
[8] = system: Pseudomonas aeruginosa; assay: Antibacterial activity against beta-lactamase IMP-13 producing Pseudomonas aeruginosa isolate 8; format: functional
[9] = system: Pseudomonas aeruginosa; assay: Antibacterial activity against beta-lactamase IMP-13 producing Pseudomonas aeruginosa isolate 9 assessed as zone of inhibition by disk diffusion assay; format: functional
[10] = system: Pseudomonas aeruginosa; assay: Antibacterial activity against beta-lactamase IMP-13 producing Pseudomonas aeruginosa isolate 12; format: functional
[11] = system: Pseudomonas aeruginosa; assay: Antibacterial activity against beta-lactamase IMP-13 producing Pseudomonas aeruginosa isolate 6
[12] = system: Pseudomonas aeruginosa; assay: Antibacterial activity against beta-lactamase IMP-13 producing Pseudomonas aeruginosa isolate 3 assessed as zone of inhibition by disk diffusion assay; format: functional
[13] = system: Pseudomonas aeruginosa; assay: Antibacterial activity against beta-lactamase IMP-13 producing Pseudomonas aeruginosa isolate 16 assessed as zone of inhibition by disk diffusion assay; format: functional
[14] = system: Pseudomonas aeruginosa; assay: Antibacterial activity against beta-lactamase IMP-13 producing Pseudomonas aeruginosa isolate 2 assessed as zone of inhibition by disk diffusion assay; format: functional
[15] = system: Pseudomonas aeruginosa; assay: Antibacterial activity against beta-lactamase IMP-13 producing Pseudomonas aeruginosa isolate 8 assessed as zone of inhibition by disk diffusion assay; format: functional
[16] = system: Pseudomonas aeruginosa; assay: Antibacterial activity against beta-lactamase IMP-13 producing Pseudomonas aeruginosa isolate 11; format: functional
[17] = system: Pseudomonas aeruginosa; assay: Antibacterial activity against beta-lactamase IMP-13 producing Pseudomonas aeruginosa isolate 7; format: functional
[18] = system: Pseudomonas aeruginosa; assay: Antibacterial activity against beta-lactamase IMP-13 producing Pseudomonas aeruginosa isolate 1 assessed as zone of inhibition by disk diffusion assay; format: functional
[19] = system: Pseudomonas aeruginosa; assay: Antibacterial activity against beta-lactamase IMP-13 producing Pseudomonas aeruginosa isolate 16; format: functional
[20] = system: Pseudomonas aeruginosa; assay: Antibacterial activity against beta-lactamase IMP-13 producing Pseudomonas aeruginosa isolate 11 assessed as zone of inhibition by disk diffusion assay; format: functional
[21] = system: Pseudomonas aeruginosa; assay: Antibacterial activity against beta-lactamase IMP-13 producing Pseudomonas aeruginosa isolate 3; format: functional
[22] = system: Pseudomonas aeruginosa; assay: Antibacterial activity against beta-lactamase IMP-13 producing Pseudomonas aeruginosa isolate 7 assessed as zone of inhibition by disk diffusion assay; format: functional
[23] = system: Pseudomonas aeruginosa; assay: Antibacterial activity against beta-lactamase IMP-13 producing Pseudomonas aeruginosa isolate 10 assessed as zone of inhibition by disk diffusion assay; format: functional
[24] = system: Pseudomonas aeruginosa; assay: Antibacterial activity against beta-lactamase IMP-13 producing Pseudomonas aeruginosa isolate 17
[25] = system: Pseudomonas aeruginosa; assay: Antibacterial activity against beta-lactamase IMP-13 producing Pseudomonas aeruginosa isolate 15; format: functional
[26] = system: Pseudomonas aeruginosa; assay: Antibacterial activity against beta-lactamase IMP-13 producing Pseudomonas aeruginosa isolate 2; format: functional
[27] = system: Pseudomonas aeruginosa; assay: Antibacterial activity against beta-lactamase IMP-13 producing Pseudomonas aeruginosa isolate 13; format: functional
[28] = system: Pseudomonas aeruginosa; assay: Antibacterial activity against beta-lactamase IMP-13 producing Pseudomonas aeruginosa isolate 5; format: functional
[29] = system: Pseudomonas aeruginosa; assay: Antibacterial activity against beta-lactamase IMP-13 producing Pseudomonas aeruginosa isolate 6 assessed as zone of inhibition by disk diffusion assay; format: functional
[30] = system: Pseudomonas aeruginosa; assay: Antibacterial activity against beta-lactamase IMP-13 producing Pseudomonas aeruginosa isolate 18 assessed as zone of inhibition by disk diffusion assay; format: functional
[31] = system: Pseudomonas aeruginosa; assay: Antibacterial activity against beta-lactamase IMP-13 producing Pseudomonas aeruginosa isolate 10; format: functional
[32] = system: Pseudomonas aeruginosa; assay: Antibacterial activity against beta-lactamase IMP-13 producing Pseudomonas aeruginosa isolate 12 assessed as zone of inhibition by disk diffusion assay; format: functional
[33] = system: Pseudomonas aeruginosa; assay: Antibacterial activity against beta-lactamase IMP-13 producing Pseudomonas aeruginosa isolate 4 assessed as zone of inhibition by disk diffusion assay; format: functional
[34] = system: Pseudomonas aeruginosa; assay: Antibacterial activity against beta-lactamase IMP-13 producing Pseudomonas aeruginosa isolate 4; format: functional
[35] = system: Pseudomonas aeruginosa; assay: Antibacterial activity against beta-lactamase IMP-13 producing Pseudomonas aeruginosa isolate 17 assessed as zone of inhibition by disk diffusion assay; format: functional
[36] = system: Pseudomonas aeruginosa; assay: Antibacterial activity against beta-lactamase IMP-13 producing Pseudomonas aeruginosa isolate 14; format: functional

Row | SMILES | MIC [1] [µg/mL] | MIC [2] [µg/mL] | inhibition zone (IZ) [3] [mm] | inhibition zone (IZ) [4] [mm] | inhibition zone (IZ) [5] [mm] | MIC [6] [µg/mL] | inhibition zone (IZ) [7] [mm] | MIC [8] [µg/mL] | inhibition zone (IZ) [9] [mm] | MIC [10] [µg/mL] | MIC [11] [µg/mL] | inhibition zone (IZ) [12] [mm] | inhibition zone (IZ) [13] [mm] | inhibition zone (IZ) [14] [mm] | inhibition zone (IZ) [15] [mm] | MIC [16] [µg/mL] | MIC [17] [µg/mL] | inhibition zone (IZ) [18] [mm] | MIC [19] [µg/mL] | inhibition zone (IZ) [20] [mm] | further results
1 | C[C@@H](O)[C@H]1C(=O)N2C(C(=O)O)=C(SCCNC=N)C[C@H]12 [IMIPENEM ANHYDROUS] | 2 (≈ 6.68 µM) | 2 (≈ 6.68 µM) | 21 | 6 | 7 | 4 (≈ 13.4 µM) | 6 | 2 (≈ 6.68 µM) | 18 | 4 (≈ 13.4 µM) | 2 (≈ 6.68 µM) | 20 | 6 | 21 | 21 | 2 (≈ 6.68 µM) | 2 (≈ 6.68 µM) | 20 | 32 (≈ 107 µM) | 21 | MIC [21]: 2 µg/mL (≈ 6.68 µM); inhibition zone (IZ) [22]: 21 mm; inhibition zone (IZ) [23]: 21 mm; MIC [24]: 2 µg/mL (≈ 6.68 µM); MIC [25]: 32 µg/mL (≈ 107 µM); MIC [26]: 2 µg/mL (≈ 6.68 µM); MIC [27]: 32 µg/mL (≈ 107 µM); MIC [28]: 2 µg/mL (≈ 6.68 µM); inhibition zone (IZ) [29]: 20 mm; inhibition zone (IZ) [30]: 21 mm; MIC [31]: 2 µg/mL (≈ 6.68 µM); inhibition zone (IZ) [32]: 18 mm; inhibition zone (IZ) [33]: 21 mm; MIC [34]: 2 µg/mL (≈ 6.68 µM); inhibition zone (IZ) [35]: 20 mm; MIC [36]: 32 µg/mL (≈ 107 µM)
2 | C[C@@H](O)[C@H]1C(=O)N2C(C(=O)O)=C(S[C@@H]3CN[C@H](C(=O)N(C)C)C3)[C@H](C)[C@H]12 [MEROPENEM] | 2 (≈ 5.22 µM) | 2 (≈ 5.22 µM) | 17 | 6 | 6 | 4 (≈ 10.4 µM) | 6 | 4 (≈ 10.4 µM) | 19 | 8 (≈ 20.9 µM) | 2 (≈ 5.22 µM) | 16 | 6 | 17 | 21 | 4 (≈ 10.4 µM) | 4 (≈ 10.4 µM) | 18 | 128 (≈ 334 µM) | 19 | MIC [21]: 4 µg/mL (≈ 10.4 µM); inhibition zone (IZ) [22]: 17 mm; inhibition zone (IZ) [23]: 20 mm; MIC [24]: 2 µg/mL (≈ 5.22 µM); MIC [25]: 128 µg/mL (≈ 334 µM); MIC [26]: 4 µg/mL (≈ 10.4 µM); MIC [27]: 128 µg/mL (≈ 334 µM); MIC [28]: 4 µg/mL (≈ 10.4 µM); inhibition zone (IZ) [29]: 16 mm; inhibition zone (IZ) [30]: 21 mm; MIC [31]: 4 µg/mL (≈ 10.4 µM); inhibition zone (IZ) [32]: 17 mm; inhibition zone (IZ) [33]: 21 mm; MIC [34]: 4 µg/mL (≈ 10.4 µM); inhibition zone (IZ) [35]: 20 mm; MIC [36]: 128 µg/mL (≈ 334 µM)
